Experimental data: paper PMC6600574 (Molecules, 2019)

What was measured:
[1] = Nitric oxide scavenging assay (nitroprusside, Griess reagent); format: biochemical; details: 10 mM nitroprusside, 90 min, read-out: NO IC50
Experimental: Ethanol (10%) was used as a blank. Nitroprusside (50 μL) at a concentration of 10 mM was added to all the wells. The plates were incubated for 90 min at room temperature. After incubation, Griess reagent (100 μL) was added to all the wells, except for the color controls (negative controls) where instead distilled water was added. The absorbances were read at a wavelength of 546 nm using a BIO-TEK Power-Wave XS multiplate reader. From the absorbances an IC50 value was determined.

[2] = DPPH radical scavenging assay; format: biochemical; details: DPPH in ethanol, 30 min
Experimental: Ascorbic acid was serially diluted to a concentration range of 0.78–100 µg/mL. Ethanol (10%) was used as a blank. Ninety microliters of a […] DPPH (2,2-diphenyl-1-picrylhydrazyl) in ethanol were added to each well. The plates were incubated for 30 min and covered in a layer of foil. Color controls (negative controls) were prepared in the exact same manner as above, but distilled water was added to each well instead of DPPH. The absorbances were measured at a wavelength of 515 nm using a BIO-TEK Power-Wave XS multiplate reader (BIO-TEK Instruments, Winooski, VT, USA). From the absorbances an IC50 value was determined.

- IC50 [1]: 144 ± 3.3 µM
- IC50 [2]: 43.7 ± 1.12 µM
SMILES: O=C1O[C@H]([C@@H](O)CO)C(O)=C1O [Ascorbic acid, reference compound]
